Results from patent US4137322A, “ML-236B carboxylic acid derivatives and their use as antihyperlipemic agents” (Sankyo Company Limited, priority 1976, dated 1979).
Like-named read-outs stand apart in the source and are kept apart here.

Tests used:
cholesterol biosynthesis = experiment: Inhibition of cholesterol biosynthesis; type: biochemical
[1] = molecular target: T1, 3-hydroxy-3-methylglutaryl-CoA reductase (Rattus norvegicus, UniProt P51639); experiment: Inhibition of 3-hydroxy-3-methylglutaryl-CoA reductase; type: biochemical
T1 construct: Employed as an enzyme microsome of rat liver; from tissue; host or cells: rat liver microsomes
T1 sequence (P51639 1-887): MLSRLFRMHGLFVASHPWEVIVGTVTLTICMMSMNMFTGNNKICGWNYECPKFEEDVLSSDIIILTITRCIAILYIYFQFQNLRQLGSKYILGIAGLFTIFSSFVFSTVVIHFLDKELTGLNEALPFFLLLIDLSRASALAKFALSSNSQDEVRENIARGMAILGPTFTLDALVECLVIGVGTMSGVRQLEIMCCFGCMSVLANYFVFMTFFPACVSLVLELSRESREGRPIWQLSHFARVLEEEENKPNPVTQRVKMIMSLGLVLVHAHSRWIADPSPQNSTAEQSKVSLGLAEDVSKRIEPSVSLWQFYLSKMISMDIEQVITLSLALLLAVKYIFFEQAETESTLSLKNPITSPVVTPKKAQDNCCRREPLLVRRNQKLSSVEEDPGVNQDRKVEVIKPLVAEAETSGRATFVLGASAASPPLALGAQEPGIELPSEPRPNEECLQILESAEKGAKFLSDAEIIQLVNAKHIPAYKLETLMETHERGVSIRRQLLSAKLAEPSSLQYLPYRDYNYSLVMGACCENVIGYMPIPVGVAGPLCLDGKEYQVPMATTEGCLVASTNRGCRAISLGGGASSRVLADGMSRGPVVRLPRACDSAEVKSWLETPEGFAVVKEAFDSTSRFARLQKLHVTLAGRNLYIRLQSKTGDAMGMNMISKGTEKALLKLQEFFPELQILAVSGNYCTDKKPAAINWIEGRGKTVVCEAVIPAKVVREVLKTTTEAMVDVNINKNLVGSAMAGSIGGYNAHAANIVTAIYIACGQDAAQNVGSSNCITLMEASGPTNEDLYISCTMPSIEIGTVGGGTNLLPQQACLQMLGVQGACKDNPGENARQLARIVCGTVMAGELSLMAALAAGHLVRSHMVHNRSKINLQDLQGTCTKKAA
Description: Inhibition activity of cholesterol biosynthesis [determined according to the method disclosed in J. Biol. Chem., 234, 2835 (1959)] and inhibition activity on 3-hydroxy-3-methylglutaryl-CoA reductase [determined according to the method disclosed in Anal. Biochem., 31, 383 (1969)] of these compounds are summarized in Table 1.
*Employed as an enzyme microsome of rat liver.

[2] = system: total serum cholesterol in beagle dogs; experiment: Lowering activity of blood cholesterol in beagle dogs; type: in vivo, beagle dog; details: for inhibition in vivo at 25 mg/kg/day / inhibition in vivo at 100 mg/kg/day: Canis lupus familiaris, po, 120 h, read-out: Lowering rate of total serum cholesterol
Description: The test was to orally administer an encapsulated test sample twice per day, in the morning (9 o'clock) and evening (16 o'clock), for continuous 5 days, collect a blood sample in the morning after 5 days and determine a total cholesterol level in serum by a conventional method.

[3] = system: serum cholesterol in rats; experiment: Lowering activity of blood cholesterol in rats; type: in vivo, rat; details: for inhibition in vivo at 5 mg/kg / inhibition in vivo at 20 mg/kg: Rattus norvegicus, po, 18 h, read-out: Lowering rate of serum cholesterol
Description: A lowering activity of blood cholesterol in rats was assayed on rats. The test was to orally administer a test sample suspended in water, collect a blood sample after 18 hours and determine a cholesterol level in serum by a conventional method.

Acute toxicity in mouse = details: in vivo, ip
Description: (§1) Acute toxicity of ML-236B carboxylic acid derivatives (I) was determined in oral and intraperitoneal administration (both as an aqueous suspension).

Acute toxicity in rat = details: in vivo, po
Description: as §1

Mouse = experiment: Acute toxicity in mouse; details: aqueous suspension
Description: as §1

Rat = experiment: Acute toxicity in rat; details: aqueous suspension
Description: as §1

[4] = enzyme: microsome of rat liver, read-out: Concentration to inhibit 50% of 3-hydroxy-3-methylglutaryl-CoA reductase (converted)
[5] = beagle dogs, 25 mg/kg/day, oral twice per day, 5 days
[6] = beagle dogs, 100 mg/kg/day, oral twice per day, 5 days
[7] = rats, 5 mg/kg, oral, after 18 hours
[8] = rats, 20 mg/kg, oral, after 18 hours
[9] = LD50, mouse, aqueous suspension

| Structure (SMILES) | Concentration to inhibit 50% of cholesterol biosynthesis (cholesterol biosynthesis) | IC50 [1, 4] | inhibition in vivo at 25 mg/kg/day [2, 5] | inhibition in vivo at 100 mg/kg/day [2, 6] | inhibition in vivo at 5 mg/kg [3, 7] | inhibition in vivo at 20 mg/kg [3, 8] | LD50 (Acute toxicity in mouse; [9]) | LD50 (Acute toxicity in rat; LD50, rat, aqueous suspension) | further results |
| --- | --- | --- | --- | --- | --- | --- | --- | --- | --- |
| CCC(C)C(=O)OC1CCC=C2C=CC(C)C(CCC(O)CC(O)CC(=O)OCC(=O)c3ccc(Br)cc3)C21 (stereo not drawn) [4-bromophenacyl, 4-Bromophenacyl ML-236B carboxylate] | 0.01 µg/mL | 330 nM | 21% | 30% | 17% | 24% | > 500 mg/kg | > 2000 mg/kg | – |
| CCC(C)C(=O)OC1CCC=C2C=CC(C)C(CCC(O)CC(O)CC(=O)OCc3ccc(Cl)cc3)C21 (stereo not drawn) [4-chlorobenzyl, 4-Chlorobenzyl ML-236B carboxylate] | 0.01 µg/mL | 375 nM | 20% | 36% | 15% | 21% | > 500 mg/kg | > 2000 mg/kg | – |
| CCC(C)C(=O)OC1CCC=C2C=CC(C)C(CCC(O)CC(O)CC(=O)OCC(=O)c3ccc(OC)cc3)C21 (stereo not drawn) [4-methoxyphenacyl, 4-Methoxyphenacyl ML-236B carboxylate] | 0.01 µg/mL | 359 nM | 26% | 39% | 14% | 23% | > 500 mg/kg | > 2000 mg/kg | – |
| CCCCOC(=O)CC(O)CC(O)CCC1C(C)C=CC2=CCCC(OC(=O)C(C)CC)C21 (stereo not drawn) [n-butyl, n-Butyl ML-236B carboxylate] | 0.02 µg/mL | 344 nM | 32% | 46% | 20% | 26% | > 500 mg/kg | > 2000 mg/kg | – |
| CCCCCCOC(=O)CC(O)CC(O)CCC1C(C)C=CC2=CCCC(OC(=O)C(C)CC)C21 (stereo not drawn) [n-hexyl, Hexyl ML-236B carboxylate] | 0.02 µg/mL | 365 nM | 17% | 29% | 14% | 23% | > 500 mg/kg | > 2000 mg/kg | – |
| CCC(C)C(=O)OC1CCC=C2C=CC(C)C(CCC(O)CC(O)CC(=O)O)C21 (stereo not drawn) [Al, Aluminum ML-236B carboxylate] | 0.006 µg/mL | – | – | – | – | – | – | – | Lowering rate of total serum cholesterol [2, 5]: 26%; Lowering rate of total serum cholesterol [2, 6]: 41%; Lowering rate of serum cholesterol ([3]; rats, 5 mg/kg, oral, after 18 hours, 5 mg/kg): 18.3%; Lowering rate of serum cholesterol ([3]; rats, 20 mg/kg, oral, after 18 hours, 20 mg/kg): 22.1%; LD50 (Mouse; i.p.): > 500 mg/kg; LD50 (Mouse; p.o., listed as Al salt): > 2,000 mg/kg; LD50 (Rat; i.p.): > 500 mg/kg; LD50 (Rat; p.o., listed as Al salt): > 2,000 mg/kg |
| CCC(C)C(=O)OC1CCC=C2C=CC(C)C(CCC3CC(O)CC(=O)O3)C21 (stereo not drawn) [ML-236B] | 0.01 µg/mL | 12300 nM | < 5% | 19% | 11.2% | 17.1% | – | – | – |
| CCC(C)C(=O)OC1CCC=C2C=CC(C)C(CCC(O)CC(O)CC(=O)OC)C21 (stereo not drawn) [methyl, Methyl ML-236B carboxylate] | 0.01 µg/mL | – | – | – | – | – | – | – | IC50 [1]: 355 nM; inhibition in vivo at 25 mg/kg/day [2]: 12%; inhibition in vivo at 100 mg/kg/day [2]: 26%; inhibition in vivo at 5 mg/kg [3]: 18%; inhibition in vivo at 20 mg/kg [3]: 23%; LD50 (Acute toxicity in mouse): > 500 mg/kg; LD50 (Acute toxicity in rat): > 2000 mg/kg |
